Test results as given in patent publication US20240050435A1, “METHODS FOR TREATING CANCER” (Washington University, priority 2022, published 2024).

Tests used:
ATR = ATR (Homo sapiens, UniProt Q13535); settings: cited from earlier work
[1] = tested on: TP53-mutant hematopoietic stem cells (HSCs); assay: Mixed bone marrow chimeras (wildtype and R172H TP53 bone marrow); assay type: in vivo; settings: mice with mixed wildtype / R172H TP53 bone marrow chimeras
Source text: To assess the impact of combination treatment on TP53-mutant hematopoietic stem cells (HSCs), mixed bone marrow chimeras transplanted with both wildtype and R172H TP53 bone marrow were established as illustrated in FIG. 13.

Sequence of ATR (Q13535 whole entry): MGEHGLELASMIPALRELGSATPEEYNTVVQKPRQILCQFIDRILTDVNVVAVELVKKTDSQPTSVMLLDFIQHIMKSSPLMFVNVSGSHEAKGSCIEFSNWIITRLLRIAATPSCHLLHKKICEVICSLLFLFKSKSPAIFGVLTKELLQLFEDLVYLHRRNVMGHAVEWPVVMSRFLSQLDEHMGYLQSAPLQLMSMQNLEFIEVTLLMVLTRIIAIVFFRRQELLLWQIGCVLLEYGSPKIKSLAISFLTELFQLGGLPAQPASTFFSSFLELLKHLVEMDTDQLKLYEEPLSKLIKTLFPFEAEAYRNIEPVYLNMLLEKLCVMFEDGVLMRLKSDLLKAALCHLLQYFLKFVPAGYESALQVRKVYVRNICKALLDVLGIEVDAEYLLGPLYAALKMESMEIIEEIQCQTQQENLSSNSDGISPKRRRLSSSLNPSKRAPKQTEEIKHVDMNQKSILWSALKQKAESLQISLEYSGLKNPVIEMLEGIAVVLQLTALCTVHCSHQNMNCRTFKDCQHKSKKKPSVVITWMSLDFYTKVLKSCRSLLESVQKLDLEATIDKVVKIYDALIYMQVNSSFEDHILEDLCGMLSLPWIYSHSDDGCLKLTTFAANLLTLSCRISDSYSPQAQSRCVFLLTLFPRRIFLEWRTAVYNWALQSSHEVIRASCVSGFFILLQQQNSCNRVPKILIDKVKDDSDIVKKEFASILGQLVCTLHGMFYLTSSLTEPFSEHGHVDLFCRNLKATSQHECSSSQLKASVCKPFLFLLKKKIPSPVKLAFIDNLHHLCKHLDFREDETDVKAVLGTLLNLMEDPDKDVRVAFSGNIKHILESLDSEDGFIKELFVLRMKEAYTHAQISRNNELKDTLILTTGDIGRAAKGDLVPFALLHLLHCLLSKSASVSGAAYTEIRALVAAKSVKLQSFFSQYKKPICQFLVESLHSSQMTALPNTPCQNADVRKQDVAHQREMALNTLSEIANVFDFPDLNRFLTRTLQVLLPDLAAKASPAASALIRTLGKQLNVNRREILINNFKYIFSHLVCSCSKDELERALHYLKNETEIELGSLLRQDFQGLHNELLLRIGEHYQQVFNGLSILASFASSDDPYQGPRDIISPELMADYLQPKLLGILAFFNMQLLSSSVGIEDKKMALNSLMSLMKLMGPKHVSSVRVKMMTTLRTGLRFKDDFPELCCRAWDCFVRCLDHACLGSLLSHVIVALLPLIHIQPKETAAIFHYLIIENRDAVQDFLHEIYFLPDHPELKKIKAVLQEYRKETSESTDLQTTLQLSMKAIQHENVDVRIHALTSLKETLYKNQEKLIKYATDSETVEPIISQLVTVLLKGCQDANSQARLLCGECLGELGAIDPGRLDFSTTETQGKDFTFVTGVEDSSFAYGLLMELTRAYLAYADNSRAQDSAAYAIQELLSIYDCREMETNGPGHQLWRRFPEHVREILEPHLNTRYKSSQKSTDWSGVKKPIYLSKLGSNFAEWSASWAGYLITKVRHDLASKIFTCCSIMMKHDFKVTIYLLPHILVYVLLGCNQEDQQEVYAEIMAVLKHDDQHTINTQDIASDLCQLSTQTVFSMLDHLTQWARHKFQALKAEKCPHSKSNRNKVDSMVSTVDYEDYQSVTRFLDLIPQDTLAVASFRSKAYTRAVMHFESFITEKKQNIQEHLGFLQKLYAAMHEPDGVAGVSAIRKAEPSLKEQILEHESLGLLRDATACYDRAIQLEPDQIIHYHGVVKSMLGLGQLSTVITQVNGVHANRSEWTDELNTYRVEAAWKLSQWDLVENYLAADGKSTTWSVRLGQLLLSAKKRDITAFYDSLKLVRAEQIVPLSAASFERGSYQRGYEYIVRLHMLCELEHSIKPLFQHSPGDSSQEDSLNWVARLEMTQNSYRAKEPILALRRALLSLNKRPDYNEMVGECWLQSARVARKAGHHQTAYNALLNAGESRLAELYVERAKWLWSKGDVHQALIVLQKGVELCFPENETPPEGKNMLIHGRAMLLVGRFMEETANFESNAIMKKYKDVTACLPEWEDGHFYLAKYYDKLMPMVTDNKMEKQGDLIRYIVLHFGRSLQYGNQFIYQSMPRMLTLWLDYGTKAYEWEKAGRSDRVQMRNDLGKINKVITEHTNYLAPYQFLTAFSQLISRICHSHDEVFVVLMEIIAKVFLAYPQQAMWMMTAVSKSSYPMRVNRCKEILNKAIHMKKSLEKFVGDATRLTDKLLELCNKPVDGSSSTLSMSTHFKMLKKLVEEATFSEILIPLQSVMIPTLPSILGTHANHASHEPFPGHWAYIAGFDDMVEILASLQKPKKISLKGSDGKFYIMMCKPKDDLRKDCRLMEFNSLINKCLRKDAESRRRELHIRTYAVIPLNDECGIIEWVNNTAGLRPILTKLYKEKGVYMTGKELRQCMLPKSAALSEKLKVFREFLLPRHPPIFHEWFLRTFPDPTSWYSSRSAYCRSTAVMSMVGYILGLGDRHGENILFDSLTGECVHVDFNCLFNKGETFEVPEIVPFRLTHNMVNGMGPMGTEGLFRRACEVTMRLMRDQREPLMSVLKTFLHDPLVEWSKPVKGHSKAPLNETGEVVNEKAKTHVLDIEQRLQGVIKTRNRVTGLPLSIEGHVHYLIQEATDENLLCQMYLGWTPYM
Sequence of ATR (Q8WXE1 whole entry partner): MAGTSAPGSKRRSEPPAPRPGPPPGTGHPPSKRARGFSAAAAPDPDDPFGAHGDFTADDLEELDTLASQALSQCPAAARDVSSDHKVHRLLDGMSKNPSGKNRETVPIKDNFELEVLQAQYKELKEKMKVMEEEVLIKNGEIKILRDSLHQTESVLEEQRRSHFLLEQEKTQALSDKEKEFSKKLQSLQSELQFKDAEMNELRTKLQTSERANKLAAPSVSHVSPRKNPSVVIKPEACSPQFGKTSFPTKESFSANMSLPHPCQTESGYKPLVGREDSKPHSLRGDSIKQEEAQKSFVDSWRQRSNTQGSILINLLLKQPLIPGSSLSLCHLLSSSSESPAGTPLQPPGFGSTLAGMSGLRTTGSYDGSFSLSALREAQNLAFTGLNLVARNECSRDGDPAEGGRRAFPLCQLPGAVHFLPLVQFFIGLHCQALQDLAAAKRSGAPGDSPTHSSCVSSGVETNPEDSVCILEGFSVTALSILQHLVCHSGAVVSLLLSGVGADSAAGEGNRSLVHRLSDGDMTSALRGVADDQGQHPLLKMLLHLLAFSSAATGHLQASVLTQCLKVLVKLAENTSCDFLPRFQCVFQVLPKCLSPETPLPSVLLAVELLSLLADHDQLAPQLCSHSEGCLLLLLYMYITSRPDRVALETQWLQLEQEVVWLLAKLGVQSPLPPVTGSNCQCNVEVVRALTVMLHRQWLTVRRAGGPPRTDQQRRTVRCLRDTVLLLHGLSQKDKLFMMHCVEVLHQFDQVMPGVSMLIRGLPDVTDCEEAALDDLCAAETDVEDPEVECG

Row | Structure (SMILES) | inhibition of ATR signaling (ATR) | effect on TP53-mutant HSCs [1]
1 | Cn1cncc1-c1c(F)cncc1NC(=O)c1c(N)nn2cc(F)cnc12 [M1774] | potent and specific inhibitor of ATR signaling | 
2 | N.N.[Cl][Pt][Cl] [cis-platinum] |  | significant expansion of TP53-mutant HSCs
